Results taken from patent US20140243375A1, “ISOXAZOLINE DERIVATIVES AS INSECTICIDAL COMPOUNDS” (Syngenta Participations AG, priority 2011, published 2014).

Tests used:
Assay type in all cases: in vivo
Spodoptera littoralis = Spodoptera littoralis (Egyptian cotton leafworm) cotton leaf disc spray test; settings: foliar, 72 h, application rate 200 ppm, sprayed cotton leaf discs, mortality, feeding behavior, growth regulation 3 days after treatment
Procedure: This Example illustrates the pesticidal/insecticidal properties of compounds of formula (I). Tests were performed as follows: Spodoptera littoralis (Egyptian Cotton Leafworm): Cotton leaf discs were placed on agar in a 24-well microtiter plate and sprayed with test solutions at an application rate of 200 ppm. After drying, the leaf discs were infested with […]. The samples were checked for mortality, feeding behavior, and growth regulation 3 days after treatment (DAT).

Diabrotica balteata = Diabrotica balteata (corn root worm) L2 larvae test on artificial diet; settings: 120 h, application rate 200 ppm (concentration in well 18 ppm), larval mortality and growth regulation after 5 days
Procedure: This Example illustrates the pesticidal/insecticidal properties of compounds of formula (I). Tests were performed as follows: Diabrotica balteata (Corn Root Worm): A 24-well microtiter plate (MTP) with artificial diet was treated with test solutions at an application rate of 200 ppm (concentration in well 18 ppm) by pipetting. After drying, the MTP's were infested with L2 larvae (6-10 per well). After an incubation period of 5 days, samples were checked for larval mortality and growth regulation.

Plutella xylostella = Plutella xylostella (diamond back moth) L2 larvae test on artificial diet; settings: 144 h, application rate 200 ppm (concentration in well 18 ppm), larval mortality and growth regulation after 6 days
Procedure: This Example illustrates the pesticidal/insecticidal properties of compounds of formula (I). Tests were performed as follows: Plutella xylostella (Diamond Back Moth): 24-well microtiter plate (MTP) with artificial diet was treated with test solutions at an application rate of 200 ppm (concentration in well 18 ppm) by pipetting. After drying, the MTP's were infested with L2 larvae (7-12 per well). After an incubation period of 6 days, samples were checked for larval mortality and growth regulation.

Heliothis virescens = Heliothis virescens (tobacco budworm) egg test on artificial diet; settings: 96 h, application rate 200 ppm (concentration in well 18 ppm), eggs on artificial diet, egg mortality, larval mortality, growth regulation after 4 days
Procedure: This Example illustrates the pesticidal/insecticidal properties of compounds of formula (I). Tests were performed as follows: Heliothis virescens (Tobacco Budworm): Eggs (0-24 h old) were placed in 24-well microtiter plate on artificial diet and treated with test solutions at an application rate of 200 ppm (concentration in well 18 ppm) by pipetting. After an incubation period of 4 days, samples were checked for egg mortality, larval mortality, and growth regulation.

Thrips tabaci = Thrips tabaci (onion thrips) sunflower leaf disc spray test; settings: foliar, 168 h, application rate 200 ppm, sprayed sunflower leaf discs, mixed ages, mortality after 7 days
Procedure: This Example illustrates the pesticidal/insecticidal properties of compounds of formula (I). Tests were performed as follows: Thrips Tabaci (Onion Thrips): Sunflower leaf discs were placed on agar in a 24-well microtiter plate and sprayed with test solutions at an application rate of 200 ppm. After drying, the leaf discs were infested with a thrips population of mixed ages. After an incubation period of 7 days, samples were checked for mortality.

Tetranychus urticae = Tetranychus urticae (two-spotted spider mite) bean leaf disc spray test; settings: foliar, 192 h, application rate 200 ppm, sprayed bean leaf discs, mixed ages, egg, larval and adult mortality 8 days later
Procedure: This Example illustrates the pesticidal/insecticidal properties of compounds of formula (I). Tests were performed as follows: Tetranychus urticae (Two-Spotted Spider Mite): Bean leaf discs on agar in 24-well microtiter plates were sprayed with test solutions at an application rate of 200 ppm. After drying, the leaf discs are infested with mite populations of mixed ages. 8 days later, discs are checked for egg mortality, larval mortality, and adult mortality.

Measured: pest or weed control at 200 ppm

Cc1cc(C2=NOC(c3cc(Cl)cc(Cl)c3)(C(F)(F)F)C2)ccc1C(=O)NC1CON(CC(F)(F)F)C1=O (stereo not drawn) [Compound A22]
≥ 80%: all assays above

CCN1OCC(NC(=O)c2ccc(C3=NOC(c4cc(Cl)cc(C(F)(F)F)c4)(C(F)(F)F)C3)cc2C)C1=O (stereo not drawn) [Compound A12]
≥ 80%: all assays above

CCN1OCC(NC(=O)c2ccc(C3=NOC(c4cc(Cl)cc(Br)c4)(C(F)(F)F)C3)cc2C)C1=O (stereo not drawn) [Compound A10]
≥ 80%: all assays above

CCN1OCC(NC(=O)c2ccc(C3=NOC(c4cc(Cl)cc(Cl)c4)(C(F)(F)F)C3)cc2C)C1=O (stereo not drawn) [Compound A07]
≥ 80%: all assays above

Cc1cc(C2=NOC(c3cc(Cl)cc(Br)c3)(C(F)(F)F)C2)ccc1C(=O)NC1CON(CC(F)(F)F)C1=O (stereo not drawn) [Compound A25]
≥ 80%: all assays above

CCN1OCC(NC(=O)c2ccc(C3=NOC(c4cc(Cl)c(F)c(Cl)c4)(C(F)(F)F)C3)cc2C)C1=O (stereo not drawn) [Compound A04]
≥ 80%: all assays above

CCN1OCC(NC(=O)c2ccc(C3=NOC(c4cc(Cl)c(Cl)c(Cl)c4)(C(F)(F)F)C3)cc2C)C1=O (stereo not drawn) [Compound A02]
≥ 80%: all assays above

Cc1cc(C2=NOC(c3cc(Cl)cc(Cl)c3)(C(F)(F)F)C2)ccc1C(=O)NC1CON(CC(F)F)C1=O (stereo not drawn) [Compound A15]
≥ 80%: all assays above

Cc1cc(C2=NOC(c3cc(Cl)c(Cl)c(Cl)c3)(C(F)(F)F)C2)ccc1C(=O)NC1CON(CC(F)(F)F)C1=O (stereo not drawn) [Compound A16]
≥ 80%: all assays above

Cc1cc(C2=NOC(c3cc(Cl)c(F)c(Cl)c3)(C(F)(F)F)C2)ccc1C(=O)NC1CON(CC(F)(F)F)C1=O (stereo not drawn) [Compound A20]
≥ 80%: all assays above

Cc1cc(C2=NOC(c3cc(Cl)cc(Cl)c3)(C(F)(F)F)C2)ccc1C(=O)NC1CON(C)C1=O (stereo not drawn) [Compound A01]
≥ 80%: all assays above
